In PMC8198750, “Synthesis of Novel Halogenated Heterocycles Based on o-Phenylenediamine and Their Interactions with the Catalytic Subunit of Protein Kinase CK2” (Molecules, 2021):
Like-named read-outs stand apart in the source and are kept apart here.

Assays:
[1] = biological target: T1, hCK2α (Homo sapiens, UniProt P68400); test: nanoDSF thermal shift assay (low-volume differential scanning fluorimetry); type: binding
T1 construct: made in house
Procedure: Binding affinities of the newly synthesized compounds towards hCK2α were assessed with the low-volume differential scanning fluorimetry (nanoDSF). The shift of the temperature of thermal denaturation in the presence of 10-fold excess of a particular ligand relative to the apo form of hCK2α (ΔTm) can be used as a semi-qualitative measure of the binding affinity or inhibitory activity.
hCK2α was expressed and purified according to the method described previously. Thermal stability of 1:10 protein–ligand complexes was monitored on Prometheus (Nanotemper Technologies, München, Germany) using PR-C002 Prometheus NT.48 Standard Capillaries using temperature ramp of 20 to 80 °C with 1 °C/min heating rate. Temperature-induced variation in ratio fluorescence intensity at 330 and 350 nm was globally analyzed using the procedure described before. All experiments were performed in 25 mM Tris–HCl (pH 8, 0.5 M NaCl) with 2% (v/v) DMSO. Protein was kept in constant 2.5 μM concentration.

[2] = RP-HPLC chromatographic hydrophobicity index; type: physicochemical; conditions: C18, 2:1 methanol:20 mM aqueous ammonium formate pH 8; τ = (Tret − T0)/T0
Procedure: RP-HPLC method, a fast and efficient alternative for standard logD determination in octan-1-ol/water system, was used to assess the hydrophobicity of all synthesized compounds. This method has been successfully used in our laboratory for halogenated benzotriazole derivatives, including the evaluation of the effect of hydrophobicity on their binding to the catalytic subunit of protein kinase CK2 [24, 43].
Chromatographic hydrophobicity index (log(τ)) was determined with the reverse phase HPLC (RP-HPLC). Column: Nova-pak® C18 4 μm, 4.6 × 250 mm. Eluent: 2:1 methanol: 20 mM aqueous ammonium formate (pH = 8) (v/v). Flow: 0.7 mL/min. Detector wavelength: 280 nm. The individual retention times (Tret) were converted to a hydrophobicity scale according to the formula τ = (Tret − T0)/T0. where the retention time of unretained solvent (T0) was estimated to 300 s.

[3] = test system: epidermoid carcinoma A-431; test: MTT cell viability assay, A-431; type: cell-based; conditions: Homo sapiens, 72 h
Excerpt: (§1) The following human cell lines were used in this study: (i) epidermoid carcinoma A-431 (ATCC® CRL-1555), (ii) colorectal carcinoma HCT116 (ATCC® CCL-247), (iii) colorectal carcinoma HCT116p53^−/−, and (iv) normal fibroblasts BJ (ATCC® CRL-2522). The HCT116p53^−/− cell line was a kind gift from professor Bert Vogelstein (John Hopkin’s University, Baltimore, MD, USA). The remaining cell lines were purchased from ATCC (Manassas, VA, USA) or Sigma Aldrich by Merck (Darmstadt, Germany).
(§2) Cells were cultured in Dulbecco’s modified Eagle’s or Roswell Park Memorial Institute (RPMI)-1640 medium supplemented with 10% or 15% fetal bovine serum (Gibco by Thermo Fisher Scientific, Waltham, MA, USA) under standard culture conditions (37 °C, 5% CO2) in a humidified incubator with atmospheric oxygen.
(§3) The viability of cells was assayed by measuring the conversion of MTT (3-(4,5-dimethylthiazol-2-yl)-2,5-diphenyltetrazolium bromide) to the formazan (the rate of this reaction is proportional to the number of surviving cells). Cells were seeded in a 96-well plate at a density of 1500–2500 cells per well, 24 h before treatment. Treatment with tested compounds and cisplatin (0.25–160 µM) was performed for 72 h. MTT stock solution (Sigma-Aldrich) was added at the final concentration 0.5 mg/mL. After 2 h of incubation at 37 °C, water-insoluble formazan was dissolved in a lysis buffer containing 20% SDS, 50% DMF, 2.5% hydrochloric acid, and 2.5% acetic acid. Optical densities were measured at 570 nm using a scanning multi-well spectrophotometer ([…] Detection Platform; Beckman Coulter, Brea, CA, USA).

[4] = test system: normal fibroblasts BJ; test: MTT cell viability assay, BJ; type: cell-based, human; conditions: for IC50: Homo sapiens, Fibroblast, MTT, 72 h
Excerpt: as §1, §2, §3

[5] = test system: colorectal carcinoma HCT116; test: MTT cell viability assay, HCT116; type: cell-based; conditions: Homo sapiens, HCT-116, 72 h, read-out: IC50 HTC116
Excerpt: as §1, §2, §3

[6] = biological target: T1, hCK2α; test: Inhibitory activity against human CK2α (ADP-Glo kinase assay); type: biochemical; conditions: inhibitor 1 nM–1 mM, triplicate
Procedure: The inhibitory effect of 8 selected compounds was monitored based on the luminescence measured with the SpectraMax iD3 Multi-Mode Microplate Reader (Molecular Devices, San Jose, CA, USA), using the previously described method with the aid of ADP-Glo kinase assay (Promega, Walldorf, Germany). Inhibitor concentration varied in the range of 1 nM–1 mM (see Supplementary Figure S38). Each experiment was repeated in triplicate and IC50 values were further estimated globally using the sigmoidal dose-response equation implemented in Origin 9.4 package (www.originlab.com, upgraded 20.07.27).

[7] = test system: colorectal carcinoma HCT116p53−/−; test: MTT cell viability assay, HCT116p53−/−; type: cell-based; conditions: Homo sapiens, 72 h
Excerpt: as §1, §2, §3

[8] = 10-fold excess of ligand (1:10 protein–ligand), 2.5 μM protein, relative to apo hCK2α, 2% DMSO, pH 8, read-out: ΔTm
[9] = 10-fold excess of ligand (1:10 protein–ligand), 2.5 μM protein, relative to apo hCK2α, 2% DMSO, pH 8

T1 sequence (P68400 whole entry): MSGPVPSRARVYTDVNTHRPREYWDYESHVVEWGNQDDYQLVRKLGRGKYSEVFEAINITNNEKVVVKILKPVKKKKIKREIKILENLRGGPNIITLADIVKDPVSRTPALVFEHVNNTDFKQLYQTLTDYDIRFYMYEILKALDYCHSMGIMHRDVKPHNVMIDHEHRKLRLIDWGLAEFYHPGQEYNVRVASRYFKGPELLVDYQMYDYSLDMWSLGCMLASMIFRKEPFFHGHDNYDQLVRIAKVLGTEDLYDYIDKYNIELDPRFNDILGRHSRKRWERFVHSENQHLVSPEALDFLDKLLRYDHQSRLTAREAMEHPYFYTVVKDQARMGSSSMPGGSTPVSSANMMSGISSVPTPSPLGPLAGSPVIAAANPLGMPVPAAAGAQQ

Compound | ΔTm at 25 µM [1, 8] [°C] | log(τ) HPLC-derived hydrophobicity index [2] | also measured
Nc1cc(I)c(I)cc1N [Compound 1e, 4,5-diiodobenzene-1,2-diamine] | 1.7 ± 0.1 | −0.093 | –
Clc1cc2nsnc2cc1Cl [Compound 2c, 5,6-dichloro-2,1,3-benzothiadiazole] | 0.2 ± 0.1 | 0.179 | –
OCc1nc2ccccc2[nH]1 [Compound 4a, 2-hydroxymethylo-1H-benzimidazole] | 0.4 ± 0.1 | −0.579 | –
O=c1[nH]c2cc(Cl)c(Cl)cc2[nH]1 [Compound 5c, 5,6-dichloro-1H-benzo[d]imidazol-2(3H)-one] | 0.8 ± 0.1 | −0.084 | –
6,7-dichloroquinoxaline-1,3-diol [Compound 7c] | – | −0.227 | ΔTm [1, 9]: 1.2 ± 0.1 °C
Clc1cc2nccnc2cc1Cl [Compound 6c, 6,7-dichloroquinoxaline] | 0.1 ± 0.1 | 0.495 | –
O=c1[nH]c2cc(Br)c(Br)cc2[nH]1 [Compound 5d, 5,6-dibromo-1H-benzo[d]imidazol-2(3H)-one] | 1.8 ± 0.1 | 0.003 | IC50 [3]: 180 ± 40 µM; IC50 [4]: 40 ± 5 µM; IC50 [5]: 18 ± 3 µM; IC50 [6]: > 1000 µM; IC50 [7]: 22 ± 3 µM
O=c1[nH]c2cc(I)c(I)cc2[nH]1 [Compound 5e, 5,6-diiodo-1H-benzo[d]imidazol-2(3H)-one] | 2.4 ± 0.1 | 0.082 | IC50 [6]: 13 ± 2 µM
FC(F)(F)c1nc2cc(I)c(I)cc2[nH]1 [Compound 3e, 5,6-diiodo-2-trifluoromethylo-1H-benzimidazole] | 4.3 ± 0.1 | 0.409 | IC50 [3]: 7 ± 1 µM; IC50 [4]: 55 ± 5 µM; selectivity index ([4]; relative to BJ fibroblasts): ~ 10; IC50 [5]: 6 ± 1 µM; IC50 [6]: 7 ± 4 µM; IC50 [7]: 6 ± 1 µM
Brc1cc2nsnc2cc1Br [Compound 2d, 5,6-dibromo-2,1,3-benzothiadiazole] | 0.2 ± 0.1 | 0.461 | –
Oc1nc2cc(Br)c(Br)cc2nc1O [Compound 7d] | 2.7 ± 0.1 | −0.174 | IC50 [3]: 385 ± 82 µM; IC50 [4]: 16 ± 2 µM; IC50 [5]: 195 ± 35 µM; IC50 [6]: 13 ± 4 µM; IC50 [7]: 850 ± 300 µM
6,7-difluoroquinoxaline-1,3-diol [Compound 7b] | – | −0.548 | ΔTm [1, 9]: 0.2 ± 0.1 °C
Fc1cc2nc(C(F)(F)F)[nH]c2cc1F [Compound 3b, 5,6-difluoro-2-trifluoromethylo-1H-benzimidazole] | 0.8 ± 0.1 | −0.095 | –
O=c1[nH]c2ccccc2[nH]1 [Compound 5a, 1H-benzo[d]imidazol-2(3H)-one] | 0.8 ± 0.1 | −0.591 | –
Nc1cc(F)c(F)cc1N [Compound 1b] | -0.1 ± 0.1 | −0.591 | –
Nc1cc(Br)c(Br)cc1N [Compound 1d] | 0.2 ± 0.1 | −0.208 | –
Brc1cc2nccnc2cc1Br [Compound 6d, 6,7-dibromoquinoxaline] | 0.4 ± 0.1 | 0.588 | –
c1ccc2nsnc2c1 [Compound 2a, 2,1,3-benzothiadiazole] | 0 | 0.009 | –
quinoxaline-1,3-diol [Compound 7a] | – | −0.699 | ΔTm [1, 9]: 0.1 ± 0.1 °C
c1ccc2nccnc2c1 [Compound 6a, quinoxaline] | -0.1 ± 0.1 | −0.295 | –
FC(F)(F)c1nc2cc(Cl)c(Cl)cc2[nH]1 [Compound 3c, 5,6-dichlorlo-2-trifluoromethylo-1H-benzimidazole] | 1.2 ± 0.1 | 0.234 | –
FC(F)(F)c1nc2ccccc2[nH]1 [Compound 3a, 2-trifluoromethylo-1H-benzimidazole] | – | −0.270 | ΔTm at 25 µM ([1]; pH 8, read-out: ΔTm): 0.4 ± 0.1 °C
Ic1cc2nsnc2cc1I [Compound 2e, 5,6-diiodo-2,1,3-benzothiadiazole] | 0.2 ± 0.1 | 0.468 | –
Nc1cc(Cl)c(Cl)cc1N [Compound 1c] | 0.1 ± 0.1 | −0.298 | –
Ic1cc2nccnc2cc1I [Compound 6e, 6,7-diiodoquinoxaline] | 0.4 ± 0.1 | 0.618 | –
OCc1nc2cc(Cl)c(Cl)cc2[nH]1 [Compound 4c, 5,6-dichloro-2-hydroxymethylo-1H-benzimidazole] | 0.7 ± 0.1 | −0.079 | –
Fc1cc2nsnc2cc1F [Compound 2b, 5,6-difluoro-2,1,3-benzothiadiazole] | -0.3 ± 0.1 | 0.169 | –
OCc1nc2cc(Br)c(Br)cc2[nH]1 [Compound 4d, 5,6-dibromo-2-hydroxymethylo-1H-benzimidazole] | 1.9 ± 0.1 | 0.010 | IC50 [3]: 45 ± 5 µM; IC50 [4]: 145 ± 15 µM; IC50 [5]: 21 ± 1 µM; IC50 [6]: > 1000 µM; IC50 [7]: 28 ± 3 µM
Nc1ccccc1N [Compound 1a, benzo-1,2-diamine] | – | −0.651 | ΔTm at 25 µM ([1]; pH 8, read-out: ΔTm): -0.1 ± 0.1 °C
